Biological target: T1, recombinant human mPGES-1 (Homo sapiens, UniProt O14684)
T1 construct: made in house; host or cells: Rosetta E. coli (membrane/microsome fraction)
T1 sequence (O14684 1-152): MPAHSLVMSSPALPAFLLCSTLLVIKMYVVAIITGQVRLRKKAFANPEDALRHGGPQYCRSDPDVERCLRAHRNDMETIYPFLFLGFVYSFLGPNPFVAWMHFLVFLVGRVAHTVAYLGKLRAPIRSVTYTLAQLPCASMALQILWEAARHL
Test: mPGES-1 enzyme assay (HTRF detection of PGE2)
Assay type: biochemical
Conditions: recombinant human mPGES-1 microsomes, PGH2 2 μM, read-out: mPGES-1 inhibitory effect IC50
Procedure: Microsomes from Rosetta E. coli bacteria expressing recombinant human mPGES-1 can be derived as described below:
Inoculate 5 ml LB with Ampicilin (50 μg/ml) and Chloramphenicol (34 μg/ml) with bacteria from freeze culture. Incubate 8 h at 37° C. with 200 rpm. Thereafter, inoculate 500-1000 ml LB containing Amp and Chloro with the 5 ml on culture and grow to OD640 of 0.8-1.0.
Chill the culture to +4° C. before induction. Induce the culture with IPTG at a final concentration of 400 μM. Express the protein at room temp 18-23° C. with 200 rpm shaking over night.
The following steps can be performed on the following day: • 1. Spin down the cells in 250 ml centrifuge flasks for 15 min at 7000 rpm (Beckmann Coulte Avanti J-E centrifuge) • 2. Dissolve the pellet from 250 ml culture in 12.5 ml homogenization buffer • 3. (15 mM Tris-HCL pH8, 1 mM EDTA pH8, 0.25 mM Sucrose, 2.5 mM GSH, 1Tablet Protease inhibitor per 50 ml buffer) • 4. Disintegrate the cells by sonication, 5×10 seconds at 48% amplitude of a 750 W sonifier • 5. Add 2.5 ml MgCl2 (100 mM) and DNase 12.5 μl (0.8 mg/ml) and incubate on ice for 30 min • 6. Spin down the bacteria debris and save the supernatant, 7000 rpm for 15 min • 7. Isolate the protein containing membranes in the supernatant by ultracentrifugation 120000×g for 2 hour at 4° C. (Sorvall T880 rotor). • 8. Discard the supernatant and dissolve the pellet in 20 mM Potassium phosphate buffer pH7.4 (KH2PO4 and K2HPO4) buffer by sonication (5×10 s, 30% of a 50 W sonifier) and aliquot the enzyme and store aliquots at −80° C.
Before each experiment is performed an aliquot of the enzyme is thawed and it can then be dissolved in 0.1 M Potassium phosphate buffer pH7.4 (KH2PO4 and K2HPO4) buffer containing 2.5 mM GSH.
The aim of this assay is to determine the affinity of a test compound for the mPGES-1 enzyme.
47 μl of recombinant human mPGES-1 (˜0.5 μg protein/well) containing microsomal suspension in a buffer containing GSH, (2.5 mmol/L L-Glutathione reduced, dissolved in 0.1 mol/L Phosphat Buffer pH 7.4) is dispensed in a 384-well plate and thereafter 1 μl of the test compound(s) is/are added and incubated for 25 minutes at room temperature. The enzyme reaction is started by the addition of 2 ul PGH2 (final conc. 2 μM) dissolved in water-free Diglyme. After 60 seconds the reaction is terminated by addition of a stop solution containing FeCl2 (10 μL 0.074 mol/l FeCl2). The samples are diluted between 1:25 in PBS (Phosphate Buffered Saline). 10 μl of the diluted samples are transferred to 384-well low volume plate. In order to quantify the amount of PGE2 that has been formed, a homogenous time resolved fluorescent (HTRF) detecting of PGE2 has been performed using a commercially available kit from Cisbio according to the manufactures recommendation. This HTRF-based assay has been described in detail (see: Goedken et al., J Biomol Screen, 2008, 13(7), 619-625). Briefly, the diluted samples are mixed with 5 μl PGE2-d2 conjungate and 5 μl anti-PGE2 cryptate conjungate. After an incubation period of the plates over night, the fluorescence is measured by the use of an appropriate microplate reader.
The fluorescence of Europium cryptate (maxex=307 nm, maxem=620 nm) and d2-PGE2 (maxex=620 nm, maxem=665 nm) are measured.
The extent of the specific HTRF is measured as a ratio of the emission intensity at 665 nm vs. that at 620 nm at an excitation pulse of 320 nm. The quantification plate contains also wells with different concentrations of PGE2 as calibration curve for the calculation of the PGE2 concentrations from the HTRF ratio values.
From all mPGES enzyme assay the background is subtracted and the IC50 is calculated over a nonlinear regression with conventional software.

| IC50 [nM] | SMILES |
| --- | --- |
| 9 | Cn1c(Nc2cc(CNC(=O)C(C)(C)C)ccc2Cl)nc2cc(C(=O)Nc3ccc(Br)cc3)c(OCC(F)F)nc21 [Example 1, N-{4-Chloro-3-[6-(4-bromo-phenylcarbamoyl)-5-(2,2-difluoro-ethoxy)-3-methyl-3H-imidazo[4,5-b]pyridin-2-ylamino]benzyl}-2,2-dimethyl-propionamide] |
| 3 | Cn1c(Nc2cc(CNC(=O)C(C)(C)C)ccc2Cl)nc2cc(C(=O)N[C@H]3CC[C@H](C(F)(F)F)CC3)c(OCC(F)F)nc21 [Example 2, N-{4-Chloro-3-[6-(trans-4-trifluoromethyl-cyclohexylcarbamoyl)-5-(2,2-difluoro-ethoxy)-3-methyl-3H-imidazo[4,5-b]pyridin-2-ylamino]benzyl}-2,2-dimethyl-propionamide] |
| 21 | COCCOc1nc2nc(Nc3cc(CNC(=O)C4(C(F)(F)F)CC4)ccc3Cl)[nH]c2cc1C(=O)N[C@H]1CC[C@H](C(F)(F)F)CC1 [Example 3] |
| 8 | COCCOc1nc2c(cc1C(=O)N[C@H]1CC[C@H](C(F)(F)F)CC1)nc(Nc1cc(CNC(=O)C3(C(F)(F)F)CC3)ccc1Cl)n2C [Example 4] |
| 4 | O=C(N[C@H]1CC[C@H](C(F)(F)F)CC1)c1cc2nc(Nc3cc(CNC(=O)C4(C(F)(F)F)CC4)ccc3Cl)[nH]c2nc1OCC(F)F [Example 5] |
| 4 | Cn1c(Nc2cc(CNC(=O)C3(C(F)(F)F)CC3)ccc2Cl)nc2cc(C(=O)N[C@H]3CC[C@H](C(F)(F)F)CC3)c(OCCF)nc21 [Example 6] |
| 8 | O=C(N[C@H]1CC[C@H](C(F)(F)F)CC1)c1cc2[nH]c(Nc3cc(CNC(=O)C4(C(F)(F)F)CC4)ccc3Cl)nc2nc1OCCF [Example 7] |
| 3 | CC(C)(C)C(=O)NCc1ccc(Cl)c(Nc2nc3cc(C(=O)N[C@H]4CC[C@H](C(F)(F)F)CC4)c(OCC(F)F)nc3[nH]2)c1Cl [Example 8, N-{2,4-Dichloro-3-[6-(trans-4-trifluoromethyl-cyclohexylcarbamoyl)-5-(2,2-difluoro-ethoxy)-1H-imidazo[4,5-b]pyridin-2-ylamino]benzyl}-2,2-dimethyl-propionamide] |
| 6 | Cn1c(Nc2c(Cl)ccc(CNC(=O)C(C)(C)C)c2Cl)nc2cc(C(=O)N[C@H]3CC[C@H](C(F)(F)F)CC3)c(OCC(F)F)nc21 [Example 9, N-{2,4-Dichloro-3-[6-(trans-4-trifluoromethyl-cyclohexylcarbamoyl)-5-(2,2-difluoro-ethoxy)-3-methyl-3H-imidazo[4,5-b]pyridin-2-ylamino]benzyl}-2,2-dimethyl-propionamide] |
| 5 | Cn1c(Nc2c(F)ccc(CNC(=O)C(C)(C)C)c2F)nc2cc(C(=O)N[C@H]3CC[C@H](C(F)(F)F)CC3)c(OCC(F)F)nc21 [Example 10, N-{2,4-Difluoro-3-[6-(trans-4-trifluoromethyl-cylohexylcarbamoyl)-5-(2,2-difluoro-ethoxy)-3-methyl-3H-imidazo[4,5-b]pyridin-2-ylamino]benzyl}-2,2-dimethyl-propionamide] |
| 4 | CC(C)(C)C(=O)NCc1ccc(F)c(Nc2nc3cc(C(=O)N[C@H]4CC[C@H](C(F)(F)F)CC4)c(OCC(F)F)nc3[nH]2)c1F [Example 11] |
| 1 | O=C(N[C@H]1CC[C@H](C(F)(F)F)CC1)c1cc2nc(Nc3c(Cl)ccc(CNC(=O)C4(C(F)(F)F)CC4)c3Cl)[nH]c2nc1OCCOC(F)F [Example 12] |
| 1 | CC(C)(C)C(=O)NCc1ccc(Cl)c(Nc2nc3cc(C(=O)NCC(F)F)c(OCC(F)F)nc3n2CC(F)F)c1Cl [Example 14] |
| 4 | CC(C)(C)C(=O)NCc1ccc(Cl)c(Nc2nc3cc(C(=O)N[C@H]4CC[C@H](C(F)(F)F)CC4)c(OCC(F)F)nc3n2CC(F)F)c1Cl [Example 15] |
| 1 | CC(C)(C)C(=O)NCc1ccc(Cl)c(Nc2nc3cc(C(=O)N[C@H]4CC[C@H](C(F)(F)F)CC4)c(OCC(F)F)nc3[nH]2)c1F [Example 156, N-{2-Fluoro-4-chloro-3-[6-(trans-4-trifluoromethyl-cyclohexylcarbamoyl)-5-(2,2-difluoro-ethoxy)-1H-imidazo[4,5-b]pyridin-2-ylamino]benzyl}-2,2-dimethyl-propionamide] |
| 2 | CC(C)(C)C(=O)NCc1ccc(Cl)c(Nc2nc3cc(C(=O)Nc4ccc(F)c(Cl)c4)c(OCC(F)F)nc3[nH]2)c1Cl [Example 157] |

Reference: patent US8586604B2, “Inhibitors of the microsomal prostaglandin E2 synthase-1” (Boehringer Ingelheim International GmbH, priority 2010, dated 2013)
